Measured values taken from PubChem BioAssay (NCI).
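Tested at 5 concentrations; 48 h exposure; 96-well plates; endpoints linearly interpolated, else capped at highest concentration. GI50 is the concentration that inhibits growth by half. TGI: total growth inhibition.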

How the values were obtained:
Assay in all cases: NCI anticancer screen, dose series, 48 h
HCC-2998 colon = test system: HCC-2998 colon
MDA-MB-231 breast = test system: MDA-MB-231 breast
SF-268 CNS = test system: SF-268 CNS
BT-549 breast = test system: BT-549 breast
NCI-H23 lung = test system: NCI-H23 lung
SK-MEL-2 melanoma = test system: SK-MEL-2 melanoma
HCT-116 colon = test system: HCT-116 colon
OVCAR-8 ovarian = test system: OVCAR-8 ovarian
A549 NSCLC = test system: A549 NSCLC
MDA-MB-435 = test system: MDA-MB-435

`COc1ccc(/C=C2\SC(=Nc3ccccc3)NC2=O)cc1` showed a GI50 (HCC-2998 colon) of 10 µM, a TGI (HCC-2998 colon) of over 100 µM and a GI50 (MDA-MB-231 breast) of 4.58 µM. For the same compound, the TGI (MDA-MB-231 breast) was 38.7 µM, the GI50 (SF-268 CNS) was 8.18 µM and the TGI (SF-268 CNS) was 88.3 µM. The GI50 (BT-549 breast) was 45.7 µM, the TGI (BT-549 breast) was over 100 µM and the GI50 (NCI-H23 lung) was 8.6 µM. The TGI (NCI-H23 lung) was 80.5 µM, the GI50 (SK-MEL-2 melanoma) was 29.3 µM and the TGI (SK-MEL-2 melanoma) was 82.4 µM. It also gave a GI50 (HCT-116 colon) of 3.4 µM, a TGI (HCT-116 colon) of 12.9 µM and a GI50 (OVCAR-8 ovarian) of 6.62 µM. It also gave a TGI (OVCAR-8 ovarian) of 31.7 µM, a GI50 (A549 NSCLC) of 4.74 µM and a TGI (A549 NSCLC) of 26.7 µM. The GI50 (MDA-MB-435) was 2.14 µM and the TGI (MDA-MB-435) was 5.34 µM.
